Laboratory results taken from patent US5712417A, “Inhibitors of retroviral proteases” (Abbott Laboratories, priority 1989, dated 1998).
Structures can show the parent of a compound that is named as a salt.

Biological target: T1, HIV protease (Human immunodeficiency virus type 1 group M subtype B, UniProt P04585)
T1 construct: HIV protease consists of 99 amino acids and is evidently split off by itself from the pol polyprotein
Assay: Inhibition of HIV protease (cleavage of H-Ser-Phe-Asn-Phe-Opr-Gln-Ile-OH, HPLC)
Type: biochemical
Conditions: inhibitor concentration at which the cleavage rate is halved; pH 6, 2 hours; read-out: IC50
Text: The compounds of the formula (I) according to the invention have enzyme-inhibiting properties. In particular, they inhibit the action of retroviral aspartyl proteases, such as that of HIV protease. Their enzyme-inhibitory action, which is in the milli- to subnanomolar range, can be determined as follows.
The heptapeptide: H-Ser-Phe-Asn-Phe-Pro-Gln-Ile-OH (P. L. Darke et al., Biophys. Res. Commun. 156 (1988) 297-303), inter alia, has hitherto been used as the substrate of HIV protease. HIV protease cleaves the substrate here between the second Phe and Pro.
General instructions for testing inhibitors of HIV proteases: a) Preparation of the substrate solution:
2 mg of H-Ser-Phe-Asn-Phe-Opr-Gln-Ile-OH (H-Opr-OH=5-oxaproline) are dissolved in 1 ml of MGTE15 buffer (use of ultrasound if necessary) and the solution is then filtered over a sterile filter (0.45 μm). […]
b) Preparation of the inhibitor solution:
2.5 times the desired molarity of the inhibitor per ml of solution are weighed out and dissolved in DMSO (10% of the final volume). The solution is diluted to the final volume with MGTE15 buffer and filtered over a sterile filter (0.45 μm). […]
c) Preparation of the protease solution:
5 μl of the HIV protease solution are diluted with MGTE25 buffer as required.
10 μl portions of the substrate solution are pipetted into test-tubes (16×100) with a screw cap. For the blank experiment, 10 μl of MGTE15 buffer containing 10% of DMSO are pipetted into a test-tube. 10 μl portions of the inhibitor solutions are added to the other test-tubes. The mixtures are incubated at 37° C. for 5-10 minutes and 5 μl of the protease solution are then added to each sample, After reaction at 35° C. for 2 hours, 10 or 20 μl (depending on the sensitivity of the HPLC apparatus) of each sample are then pipetted off, introduced into microvials and diluted with 120 μl of the HPLC mobile phase. […]
e) Conditions for the HPLC analysis:
20% (weight/weight) of aceto-
Column: Merck ®LICHROSORB RP18 (5 μm) 250×4
Column temperature: 42° C.
Detector parameters: 215 nm, 0.08 AUF, 18.2° C.
Analysis time: 11 minutes
Retention time of the substrate: 8.1 minutes
Retention time of the N-terminal tetrapeptide: 3.9 minutes
20 mM morpholinoethanesulfonic acid (MES)
15% (weight/volume) of glycerol
0.1% (volume/volume) of Triton ×100
1 mM phenylmethylsulfonyl fluoride (PMSF)
25% (weight/volume) of glycerol, additionally 1 mM dithiothreitol (DTT) The MES, EDTA, NaCl, DTT and PMSF are weighed into a conical flask and dissolved in a little water and the pH is brought to 6. The corresponding amount of glycerol is weighed into a measuring flask and ®Triton ×100 is pipetted in. The aqueous solution is transferred to the measuring flask and made up to the mark with water.
A 0.1M solution is prepared from orthophosphoric acid (FLUKA extra pure analytical grade). This solution is brought to exactly pH 2.5 with triethylamine (FLUKA extra pure analytical grade). The weight of the solution is determined and the corresponding amount of acetonitrile (fume cupboard) is weighed in. The mixture is mixed thoroughly and degassed with helium 5.0 for about 5 minutes.
Under the conditions chosen here, heptapeptides are separated from the N-terminal tetrapeptide formed during enzymatic cleavage. The percentage content of the tetrapeptide peak in respect of the sum of tetrapeptide+heptapeptide corresponds to the cleaving rate. The following IC50 values indicate the inhibitor concentration at which the cleavage rate is halved.

Row | Compound | IC50 [nM]
1 | N[C@@H](Cc1ccccc1)C(=O)N[C@H](C(=O)N[C@@H](Cc1ccccc1)[C@@H](O)[C@H](O)[C@H](Cc1ccccc1)NC(=O)[C@@H](NC(=O)[C@@H](N)Cc1ccccc1)C1CCCCC1)C1CCCCC1 [Example 72, N,N'-bis-<L-Phenylalanyl-L-cyclohexylglycyl>-2S,5S-diamino-1,6-diphenylhexane-3R,4R-diol dihydrochloride] | 30
2 | CSCC[C@H](N)C(=O)N[C@H](C(=O)N[C@@H](Cc1ccccc1)[C@H](O)[C@@H](O)[C@H](Cc1ccccc1)NC(=O)[C@@H](NC(=O)[C@@H](N)CCSC)C(C)C)C(C)C [Example 74, N,N'-bis-<L-Methionyl-L-valyl>-2S,5S-diamino-1,6-diphenylhexane-3S,4S-dioldihydrochloride] | 1.7
3 | CSCC[C@H](NC(=O)OC(C)(C)C)C(=O)N[C@H](C(=O)N[C@@H](Cc1ccccc1)[C@H](O)[C@@H](O)[C@H](Cc1ccccc1)NC(=O)[C@@H](NC(=O)[C@H](CCSC)NC(=O)OC(C)(C)C)C(C)C)C(C)C [Example 75, N,N'-bis-<tert.-Butoxycarbonyl-L-methionyl-L-valyl>-2S,5S-diamino-1,6-diphenylhexane-3S,4S-diol] | 19
4 | COc1ccc(C[C@H](N)C(=O)N[C@H](C(=O)N[C@@H](Cc2ccccc2)[C@H](O)[C@@H](O)[C@H](Cc2ccccc2)NC(=O)[C@@H](NC(=O)[C@@H](N)Cc2ccc(OC)cc2)C(C)C)C(C)C)cc1 [Example 76, N,N'-bis-<(O-Methyltyrosyl-L-valyl>-2S,5S-diamino-1,6-diphenylhexane-3S,4S-dioldihydrochloride] | 0.29
5 | COc1ccc(C[C@H](NC(=O)OC(C)(C)C)C(=O)N[C@H](C(=O)N[C@@H](Cc2ccccc2)[C@H](O)[C@@H](O)[C@H](Cc2ccccc2)NC(=O)[C@@H](NC(=O)[C@H](Cc2ccc(OC)cc2)NC(=O)OC(C)(C)C)C(C)C)C(C)C)cc1 [Example 77, N,N'-bis-<tert.-Butoxycarbonyl-(O-methyltyrosyl)-L-valyl>-2S,5S-diamino-1,6-diphenylhexane-3S,4S-diol] | 9.2
6 | CC(C)[C@H](NC(=O)[C@@H](N)Cc1ccc(O)cc1)C(=O)N[C@@H](Cc1ccccc1)[C@H](O)[C@@H](O)[C@H](Cc1ccccc1)NC(=O)[C@@H](NC(=O)[C@@H](N)Cc1ccc(O)cc1)C(C)C [Example 78, N,N'-bis-<L-Tyrosyl-L-valyl>-2S,5S-diamino-1,6-diphenyl-hexane-3S,4S-dioldihydrochloride] | 1.8
7 | CC(C)[C@H](NC(=O)[C@H](CCCCNC(=O)OCc1ccccc1)NC(=O)OC(C)(C)C)C(=O)N[C@@H](Cc1ccccc1)[C@@H](O)[C@H](O)[C@H](Cc1ccccc1)NC(=O)[C@@H](NC(=O)[C@H](CCCCNC(=O)OCc1ccccc1)NC(=O)OC(C)(C)C)C(C)C [Example 80] | 28
8 | CC(C)[C@H](NC(=O)[C@@H](N)CCC(=O)O)C(=O)N[C@@H](Cc1ccccc1)[C@H](O)[C@@H](O)[C@H](Cc1ccccc1)NC(=O)[C@@H](NC(=O)[C@@H](N)CCC(=O)O)C(C)C [Example 82, N,N,-bis-<L-Glutamyl-L-valyl>-2S,5S-diamino-1,6-diphenyl-hexane-3S,4S-dioldihydrochloride] | 9
9 | CC(C)[C@H](NC(=O)[C@H](CCC(=O)O)NC(=O)OC(C)(C)C)C(=O)N[C@@H](Cc1ccccc1)[C@H](O)[C@@H](O)[C@H](Cc1ccccc1)NC(=O)[C@@H](NC(=O)[C@H](CCC(=O)O)NC(=O)OC(C)(C)C)C(C)C [Example 83, N,N,-bis-<tert.-Butoxycarbonyl-L-glutamyl-L-valyl>-2S,5S-diamino-1,6-diphenylhexane-3S,4S-diol] | 10
10 | CC(C)[C@H](NC(=O)[C@H](CCC(=O)OCc1ccccc1)NC(=O)OC(C)(C)C)C(=O)N[C@@H](Cc1ccccc1)[C@H](O)[C@@H](O)[C@H](Cc1ccccc1)NC(=O)[C@@H](NC(=O)[C@H](CCC(=O)OCc1ccccc1)NC(=O)OC(C)(C)C)C(C)C [Example 84, N,N,-bis-<(N-tert.-Butoxycarbonyl-O-benzyl-L-glutamyl)-L-valyl>-2S,5S-diamino-1,6-diphenylhexane-3S,4S-diol] | 110
11 | CC(C)[C@H](NC(=O)CN)C(=O)N[C@@H](Cc1ccccc1)[C@@H](O)[C@H](O)[C@H](Cc1ccccc1)NC(=O)[C@@H](NC(=O)CN)C(C)C [Example 85, N,N'-bis-<Glycyl-L-valyl>-2S,5S-diamino-1,6-diphenyl-hexane-3R,4R-dioldihydrochloride] | 1.9
12 | CC(C)[C@H](NC(=O)CNC(=O)OC(C)(C)C)C(=O)N[C@@H](Cc1ccccc1)[C@@H](O)[C@H](O)[C@H](Cc1ccccc1)NC(=O)[C@@H](NC(=O)CNC(=O)OC(C)(C)C)C(C)C [Example 86, N,N'-bis-<tert.-Butoxycarbonylglycyl-L-valyl>-2S,5S-diamino-1,6-diphenylhexane-3R,4R-diol] | 2.2
13 | CC(C)C[C@H](N)C(=O)N[C@H](C(=O)N[C@@H](Cc1ccccc1)[C@H](O)[C@@H](O)[C@H](Cc1ccccc1)NC(=O)[C@@H](NC(=O)[C@@H](N)CC(C)C)C(C)C)C(C)C [Example 87, N,N'-bis-<L-Leucyl-L-valyl>-2S,5S-diamino-1,6-diphenyl-hexane-3S,4S-dioldihydrochloride] | 1.6
14 | CC(C)C[C@H](NC(=O)OC(C)(C)C)C(=O)N[C@H](C(=O)N[C@@H](Cc1ccccc1)[C@H](O)[C@@H](O)[C@H](Cc1ccccc1)NC(=O)[C@@H](NC(=O)[C@H](CC(C)C)NC(=O)OC(C)(C)C)C(C)C)C(C)C [Example 88, N,N'-bis-<tert.-Butoxycarbonyl-L-leucyl-L-valyl>-2S,5S-diamino-1,6-diphenylhexane-3S,4S-diol] | 1000
15 | CC(C)[C@H](NC(=O)[C@@H](N)CCS(C)(=O)=O)C(=O)N[C@@H](Cc1ccccc1)[C@@H](O)[C@H](O)[C@H](Cc1ccccc1)NC(=O)[C@@H](NC(=O)[C@@H](N)CCS(C)(=O)=O)C(C)C [Example 89, N,N'-bis-<L-(S-Dioxo)methionyl-L-valyl>-2S,5S-diamino-1,6-diphenylhexane-3R,4R-diol dihydrochloride] | 1.8
16 | CC(C)[C@H](NC(=O)[C@H](CCS(C)(=O)=O)NC(=O)OC(C)(C)C)C(=O)N[C@@H](Cc1ccccc1)[C@@H](O)[C@H](O)[C@H](Cc1ccccc1)NC(=O)[C@@H](NC(=O)[C@H](CCS(C)(=O)=O)NC(=O)OC(C)(C)C)C(C)C [Example 90, N,N'-bis-<tert.-Butoxycarbonyl-L-(S-dioxo)methionyl-L-valyl>-2S,SS-diamino-1,6-diphenylhexane-3R,4R-diol] | 2.2
17 | CC(C)(C)[C@H](NC(=O)[C@H](Cc1ccccc1)CS(=O)(=O)C(C)(C)C)C(=O)N[C@@H](Cc1ccccc1)[C@@H](O)[C@H](O)[C@H](Cc1ccccc1)NC(=O)[C@@H](NC(=O)[C@H](Cc1ccccc1)CS(=O)(=O)C(C)(C)C)C(C)(C)C [Example 91, N,N'-bis-<(2S-(1,1-Dimethylethylsulfonylmethyl)-3-phenyl-propionyl)-L-tert.-butylglycyl>-2S, 5S-diamino-1,6-diphenylhexane-3R, 4R-diol] | 1.3
18 | CC(C)[C@H](NC(=O)[C@@H](O)CCc1ccccc1)C(=O)N[C@@H](Cc1ccccc1)[C@H](O)[C@@H](O)[C@H](Cc1ccccc1)NC(=O)[C@@H](NC(=O)[C@@H](O)CCc1ccccc1)C(C)C [Example 94, N,N'-bis-<(2S-Hydroxy-4-phenylbutyryl)-L-valyl>-2S,5S-diamino-1,6-diphenylhexane-3S,4S-diol] | 6.5
19 | CC(C)[C@H](NC(=O)C(Cc1ccccc1)CS(=O)(=O)N1CCC(N)CC1)C(=O)N[C@@H](Cc1ccccc1)[C@@H](O)[C@H](O)[C@H](Cc1ccccc1)NC(=O)[C@@H](NC(=O)C(Cc1ccccc1)CS(=O)(=O)N1CCC(N)CC1)C(C)C (stereo partly drawn) [Example 97, N,N'-bis-<3-(4-Amino-1-piperidylsulfonyl)-2-benzyl-propionyl-L-valyl>-2S,5S-diamino-1,6-diphenylhexane-3R,4R-diol] | 36
